Test results published in PMC5218480 (PLoS ONE, 2017).

Tested on: MV-4-11 cells
Assay: Gene expression microarray analysis (Affymetrix PrimeView) and GSEA
Format: cell-based, human
Parameters: RFU PODN (11730768_x_at) / Fold change /veh PODN (11730768_x_at) / RFU LINC00158 (11744669_a_at) / Fold change /veh LINC00158 (11744669_a_at) / RFU DUSP10 (11751237_a_at) / Fold change /veh DUSP10 (11751237_a_at) / RFU ID3 (11757404_x_at) / Fold change /veh ID3 (11757404_x_at) / RFU PLEKHG5 (11737974_s_at) / Fold change /veh PLEKHG5 (11737974_s_at) / RFU LRRC4B (11730491_at) / Fold change /veh LRRC4B (11730491_at) / RFU GIMAP4 (11747438_a_at) / Fold change /veh GIMAP4 (11747438_a_at) / RFU KRT8 (11758183_x_at) / Fold change /veh KRT8 (11758183_x_at) / RFU CNN1 (11734310_a_at) / Fold change /veh CNN1 (11734310_a_at) / RFU VPS37D (11726825_at) / Fold change /veh VPS37D (11726825_at) / RFU C10orf10 (11716522_x_at) / Fold change /veh C10orf10 (11716522_x_at) / RFU KIR2DL2 /// KIR2DL4 /// KIR2DL5A /// KIR2DL5B /// KIR2DS1 /// KIR2DS2 /// KIR2DS3 /// KIR2DS4 /// KIR3DL3 /// KIR3DL3 /// KIR3DS1 (11738374_at) / Fold change /veh KIR2DL2 /// KIR2DL4 /// KIR2DL5A /// KIR2DL5B /// KIR2DS1 /// KIR2DS2 /// KIR2DS3 /// KIR2DS4 /// KIR3DL3 /// KIR3DL3 /// KIR3DS1 (11738374_at) / RFU C1QL1 (11718748_at) / Fold change /veh C1QL1 (11718748_at) / RFU TMPRSS4 (11747572_a_at) / Fold change /veh TMPRSS4 (11747572_a_at) / RFU HAMP (11756126_x_at) / Fold change /veh HAMP (11756126_x_at) / RFU RNFT2 (11725882_a_at) / Fold change /veh RNFT2 (11725882_a_at) / RFU NR4A2 (11747474_a_at) / Fold change /veh NR4A2 (11747474_a_at) / RFU ABCC12 (11746883_a_at) / Fold change /veh ABCC12 (11746883_a_at) / RFU TMEM136 (11760407_x_at) / Fold change /veh TMEM136 (11760407_x_at) / RFU CLDN22 /// WWC2 (11732394_at) / Fold change /veh CLDN22 /// WWC2 (11732394_at) / RFU HLA-DPB1 (11760878_x_at) / Fold change /veh HLA-DPB1 (11760878_x_at) / RFU SPINT1 (11716480_a_at) / Fold change /veh SPINT1 (11716480_a_at) / RFU GAP43 (11754022_s_at) / Fold change /veh GAP43 (11754022_s_at) / RFU A4GNT (11735810_at) / Fold change /veh A4GNT (11735810_at) / RFU PRB3 (11715151_x_at) / Fold change /veh PRB3 (11715151_x_at) / RFU TUBB4B (11761932_at) / Fold change /veh TUBB4B (11761932_at) / RFU CAPN14 (11732068_a_at) / Fold change /veh CAPN14 (11732068_a_at) / RFU TMCC2 (11721928_a_at) / Fold change /veh TMCC2 (11721928_a_at) / RFU IRGQ (11745062_a_at) / Fold change /veh IRGQ (11745062_a_at) / RFU FAM174B (11720279_a_at) / Fold change /veh FAM174B (11720279_a_at) / RFU TMPRSS4 (11748680_a_at) / Fold change /veh TMPRSS4 (11748680_a_at) / RFU FAM212B (11763350_a_at) / Fold change /veh FAM212B (11763350_a_at) / RFU PLEKHG5 (11743358_a_at) / Fold change /veh PLEKHG5 (11743358_a_at) / RFU ZSCAN30 (11745921_a_at) / Fold change /veh ZSCAN30 (11745921_a_at) / RFU CMKLR1 (11741424_a_at) / Fold change /veh CMKLR1 (11741424_a_at) / RFU LOC101060620 /// MAPK8IP1 (11723275_at) / Fold change /veh LOC101060620 /// MAPK8IP1 (11723275_at) / RFU SPTSSB (11747773_x_at) / Fold change /veh SPTSSB (11747773_x_at) / RFU PRSS12 (11739890_at) / Fold change /veh PRSS12 (11739890_at) / RFU BIN1 (11741810_x_at) / Fold change /veh BIN1 (11741810_x_at) / RFU WNT11 (11732464_a_at) / Fold change /veh WNT11 (11732464_a_at) / RFU C10orf10 (11716521_a_at) / Fold change /veh C10orf10 (11716521_a_at) / RFU C5orf56 (11738089_at) / Fold change /veh C5orf56 (11738089_at) / RFU CYB561 (11721691_x_at) / Fold change /veh CYB561 (11721691_x_at) / RFU ANKRD19P (11752326_a_at) / Fold change /veh ANKRD19P (11752326_a_at) / RFU OR2T12 /// OR2T33 /// OR2T8 (11738714_s_at) / Fold change /veh OR2T12 /// OR2T33 /// OR2T8 (11738714_s_at) / RFU VCAN (11748164_a_at) / Fold change /veh VCAN (11748164_a_at) / RFU JSRP1 (11732532_at) / Fold change /veh JSRP1 (11732532_at) / RFU KRTAP10-11 (11738290_x_at) / Fold change /veh KRTAP10-11 (11738290_x_at) / RFU MYO3A (11730013_a_at) / Fold change /veh MYO3A (11730013_a_at) / RFU EBF3 (11725865_a_at) / Fold change /veh EBF3 (11725865_a_at) / RFU CAMK2N1 (11719241_x_at) / Fold change /veh CAMK2N1 (11719241_x_at) / RFU C5orf56 (11738088_a_at) / Fold change /veh C5orf56 (11738088_a_at) / RFU OLFML3 (11715873_a_at) / Fold change /veh OLFML3 (11715873_a_at) / RFU LOC100653217 /// NTM (11731650_a_at) / Fold change /veh LOC100653217 /// NTM (11731650_a_at) / RFU MAPK11 (11762145_a_at) / Fold change /veh MAPK11 (11762145_a_at) / RFU FIZ1 (11724087_x_at) / Fold change /veh FIZ1 (11724087_x_at) / RFU OASL (11726364_x_at) / Fold change /veh OASL (11726364_x_at) / RFU SOX15 (11748057_x_at) / Fold change /veh SOX15 (11748057_x_at) / RFU CD79A (11719716_a_at) / Fold change /veh CD79A (11719716_a_at) / RFU HIST1H1D (11736915_at) / Fold change /veh HIST1H1D (11736915_at) / RFU CASKIN2 (11723855_a_at) / Fold change /veh CASKIN2 (11723855_a_at) / RFU LOC730098 (11760151_x_at) / Fold change /veh LOC730098 (11760151_x_at) / RFU OR4N2 (11742367_at) / Fold change /veh OR4N2 (11742367_at) / RFU PRRT2 (11749266_a_at) / Fold change /veh PRRT2 (11749266_a_at) / RFU SNX32 (11753110_a_at) / Fold change /veh SNX32 (11753110_a_at) / RFU CDHR5 (11726645_a_at) / Fold change /veh CDHR5 (11726645_a_at) / RFU RCAN1 (11760418_a_at) / Fold change /veh RCAN1 (11760418_a_at) / RFU FAM167A (11723789_a_at) / Fold change /veh FAM167A (11723789_a_at) / RFU FAM26E (11764081_at) / Fold change /veh FAM26E (11764081_at) / RFU ISYNA1 (11749810_s_at) / Fold change /veh ISYNA1 (11749810_s_at) / RFU ACY1 (11761880_at) / Fold change /veh ACY1 (11761880_at) / RFU 11764098_at / Fold change /veh 11764098_at / RFU SAMD14 (11745864_x_at) / Fold change /veh SAMD14 (11745864_x_at) / RFU NPB (11741838_a_at) / Fold change /veh NPB (11741838_a_at) / RFU TMPRSS6 (11731388_a_at) / Fold change /veh TMPRSS6 (11731388_a_at) / RFU KRTAP10-2 (11738614_at) / Fold change /veh KRTAP10-2 (11738614_at) / RFU ARHGAP8 /// PRR5-ARHGAP8 (11727945_x_at) / Fold change /veh ARHGAP8 /// PRR5-ARHGAP8 (11727945_x_at) / RFU KRTAP5-7 /// NADSYN1 (11734609_at) / Fold change /veh KRTAP5-7 /// NADSYN1 (11734609_at) / RFU RASL12 (11751679_a_at) / Fold change /veh RASL12 (11751679_a_at) / RFU CDKN2B (11736163_a_at) / Fold change /veh CDKN2B (11736163_a_at) / RFU PRF1 (11729649_at) / Fold change /veh PRF1 (11729649_at) / RFU, ZNF638 /// ZNF638-IT1 / Fold change vs veh, ZNF638 /// ZNF638-IT1 / RFU, PANK3 / Fold change vs veh, PANK3 / RFU, SH3YL1 / Fold change vs veh, SH3YL1 / RFU, ZEB2 / Fold change vs veh, ZEB2 / RFU, NRIP1 / Fold change vs veh, NRIP1 / RFU, PTTG1IP / Fold change vs veh, PTTG1IP / RFU, CAPN2 / Fold change vs veh, CAPN2 / RFU, MED14 / Fold change vs veh, MED14 / RFU, SNORA58 / Fold change vs veh, SNORA58 / RFU, C1orf63 / Fold change vs veh, C1orf63 / RFU, LRRFIP1 / Fold change vs veh, LRRFIP1 / RFU, NDUFAF7 / Fold change vs veh, NDUFAF7 / RFU, SLC12A2 / Fold change vs veh, SLC12A2 / RFU, IBTK / Fold change vs veh, IBTK / RFU, ESF1 / Fold change vs veh, ESF1 / Fold change vs veh, TMEM50B / RFU, TAOK1 / Fold change vs veh, TAOK1 / RFU, ACBD3 / Fold change vs veh, ACBD3 / RFU, TMA16 / Fold change vs veh, TMA16 / RFU, RWDD3 / Fold change vs veh, RWDD3 / RFU, BCAT1 / Fold change vs veh, BCAT1 / RFU, EDEM3 / Fold change vs veh, EDEM3 / RFU, TMEM33 / Fold change vs veh, TMEM33 / RFU, WDR75 / Fold change vs veh, WDR75 / RFU, AHCTF1 / Fold change vs veh, AHCTF1 / RFU, TFRC / Fold change vs veh, TFRC / RFU, ZDHHC17 / Fold change vs veh, ZDHHC17 / RFU, NOM1 / Fold change vs veh, NOM1 / RFU, ARL8B / Fold change vs veh, ARL8B / RFU, ZBTB11 / Fold change vs veh, ZBTB11 / RFU, TAMM41 / Fold change vs veh, TAMM41 / RFU, KIAA1704 /// LOC100996395 / Fold change vs veh, KIAA1704 /// LOC100996395 / RFU, ING1 / Fold change vs veh, ING1 / RFU, TRMT61B / Fold change vs veh, TRMT61B / RFU, FUBP3 / Fold change vs veh, FUBP3 / RFU, TP53 / Fold change vs veh, TP53 / RFU, TNKS2 / Fold change vs veh, TNKS2 / RFU, ZFP14 / Fold change vs veh, ZFP14 / RFU, ACTR2 / Fold change vs veh, ACTR2 / RFU, PPP3R1 / Fold change vs veh, PPP3R1 / RFU, PIK3R1 / Fold change vs veh, PIK3R1 / RFU, HNRNPA1 / Fold change vs veh, HNRNPA1 / RFU, RNF170 / Fold change vs veh, RNF170 / RFU, ZNF28 / Fold change vs veh, ZNF28 / RFU, RNGTT / Fold change vs veh, RNGTT / RFU, OGT / Fold change vs veh, OGT / RFU, BRD1 / Fold change vs veh, BRD1 / RFU, MARS / Fold change vs veh, MARS / RFU, ZNF655 / Fold change vs veh, ZNF655 / RFU, FAHD1 / Fold change vs veh, FAHD1 / RFU, BDP1 / Fold change vs veh, BDP1 / RFU, LRRCC1 / Fold change vs veh, LRRCC1 / RFU, ARID1A / Fold change vs veh, ARID1A / RFU, ZNF146 / Fold change vs veh, ZNF146 / RFU, ZNF330 / Fold change vs veh, ZNF330 / RFU, GPN3 / Fold change vs veh, GPN3 / RFU, C9orf123 / Fold change vs veh, C9orf123 / RFU, N4BP2L2 / Fold change vs veh, N4BP2L2 / RFU, ARFIP1 / Fold change vs veh, ARFIP1 / RFU, FAM179B / Fold change vs veh, FAM179B / RFU, BCL10 / Fold change vs veh, BCL10 / RFU, UHRF1BP1L / Fold change vs veh, UHRF1BP1L / RFU, BET1 / Fold change vs veh, BET1 / RFU, CNOT2 / Fold change vs veh, CNOT2 / RFU, ZNF268 / Fold change vs veh, ZNF268 / Fold change vs veh, ZNF507 / RFU, DGCR2 / Fold change vs veh, DGCR2 / RFU, WDSUB1 / Fold change vs veh, WDSUB1 / Fold change vs veh, HSP90B1 /// MIR3652 / RFU, ADSS / Fold change vs veh, ADSS / RFU, GK / Fold change vs veh, GK / RFU, ZNF148 / Fold change vs veh, ZNF148 / RFU, TAF9 / Fold change vs veh, TAF9 / RFU, SLC1A5 / Fold change vs veh, SLC1A5 / RFU, SLMO2 / Fold change vs veh, SLMO2 / RFU, ABCC4 / Fold change vs veh, ABCC4 / RFU, LOC101060439 /// RAP1B / Fold change vs veh, LOC101060439 /// RAP1B / RFU, RFX7 / Fold change vs veh, RFX7 / RFU, GTPBP10 / Fold change vs veh, GTPBP10 / RFU, CNEP1R1 / Fold change vs veh, CNEP1R1 / RFU, BIVM-ERCC5 /// ERCC5 / Fold change vs veh, BIVM-ERCC5 /// ERCC5 / RFU, ILF3 / Fold change vs veh, ILF3 / RFU 11762660_at / Fold change /veh 11762660_at / RFU VCAN (11757783_s_at) / Fold change /veh VCAN (11757783_s_at) / RFU DDX43 (11728927_at) / Fold change /veh DDX43 (11728927_at) / RFU KRT8 (11758188_x_at) / Fold change /veh KRT8 (11758188_x_at) / RFU NKD1 (11759106_at) / Fold change /veh NKD1 (11759106_at) / RFU SRD5A1 (11742802_a_at) / Fold change /veh SRD5A1 (11742802_a_at) / RFU TPSAB1 /// TPSB2 (11721975_s_at) / Fold change /veh TPSAB1 /// TPSB2 (11721975_s_at) / RFU GSTM3 (11746129_a_at) / Fold change /veh GSTM3 (11746129_a_at) / RFU IL23R (11737362_x_at) / Fold change /veh IL23R (11737362_x_at) / RFU TMEM51 (11727254_a_at) / Fold change /veh TMEM51 (11727254_a_at) / RFU PIWIL2 (11732686_x_at) / Fold change /veh PIWIL2 (11732686_x_at) / RFU ORM1 (11744905_x_at) / Fold change /veh ORM1 (11744905_x_at) / RFU CCDC152 (11743942_at) / Fold change /veh CCDC152 (11743942_at) / RFU ECM1 (11717891_a_at) / Fold change /veh ECM1 (11717891_a_at) / RFU IL23R (11748794_a_at) / Fold change /veh IL23R (11748794_a_at) / RFU TNFAIP8L3 (11732012_x_at) / Fold change /veh TNFAIP8L3 (11732012_x_at) / RFU MBOAT4 (11741988_at) / Fold change /veh MBOAT4 (11741988_at) / RFU 11764193_at / Fold change /veh 11764193_at / RFU TMEM53 (11763286_at) / Fold change /veh TMEM53 (11763286_at) / RFU MAGEB2 (11727129_at) / Fold change /veh MAGEB2 (11727129_at) / RFU TMEM200A (11744735_a_at) / Fold change /veh TMEM200A (11744735_a_at) / RFU CCDC152 (11751479_a_at) / Fold change /veh CCDC152 (11751479_a_at) / RFU FAM211A (11726209_a_at) / Fold change /veh FAM211A (11726209_a_at) / RFU RGS16 (11746705_a_at) / Fold change /veh RGS16 (11746705_a_at) / RFU VCAN (11755009_s_at) / Fold change /veh VCAN (11755009_s_at) / RFU RHOB (11743442_s_at) / Fold change /veh RHOB (11743442_s_at) / RFU RGS16 (11720943_a_at) / Fold change /veh RGS16 (11720943_a_at) / RFU RGS16 (11720944_at) / Fold change /veh RGS16 (11720944_at) / RFU, VPS4B / Fold change vs veh, VPS4B / RFU, CREB1 / Fold change vs veh, CREB1 / RFU, DNAJC13 / Fold change vs veh, DNAJC13 / RFU, GNAQ / Fold change vs veh, GNAQ / RFU, CDK5R1 / Fold change vs veh, CDK5R1 / RFU, ZRANB3 / Fold change vs veh, ZRANB3 / RFU, CUL4A / Fold change vs veh, CUL4A / RFU, CCNY / Fold change vs veh, CCNY / RFU, UFL1 / Fold change vs veh, UFL1 / RFU, COG3 / Fold change vs veh, COG3 / RFU, DIAPH2 / Fold change vs veh, DIAPH2 / RFU, SKA2 / Fold change vs veh, SKA2 / RFU, AFF3 / Fold change vs veh, AFF3 / RFU, LMF1 / Fold change vs veh, LMF1 / RFU, IPO11 / Fold change vs veh, IPO11 / RFU, DFFB / Fold change vs veh, DFFB / RFU, FOXP1 / Fold change vs veh, FOXP1 / RFU, CARD8 / Fold change vs veh, CARD8 / RFU, STRN3 / Fold change vs veh, STRN3 / RFU, ADK / Fold change vs veh, ADK / RFU, RASSF2 / Fold change vs veh, RASSF2 / RFU, WIPF1 / Fold change vs veh, WIPF1 / RFU, LARP1B / Fold change vs veh, LARP1B / RFU, RASA1 / Fold change vs veh, RASA1 / RFU, RB1 / Fold change vs veh, RB1 / RFU, PPFIA1 / Fold change vs veh, PPFIA1 / RFU, MAT2A / Fold change vs veh, MAT2A / RFU, CCT5 / Fold change vs veh, CCT5 / RFU, WDR92 / Fold change vs veh, WDR92 / RFU, CUX1 / Fold change vs veh, CUX1 / RFU, TTC7A / Fold change vs veh, TTC7A / RFU, TMEM135 / Fold change vs veh, TMEM135 / RFU, DEPTOR / Fold change vs veh, DEPTOR / RFU, CPM / Fold change vs veh, CPM / RFU, DNAJB6 / Fold change vs veh, DNAJB6 / RFU, CACNA2D3 / Fold change vs veh, CACNA2D3 / RFU, DTX4 / Fold change vs veh, DTX4 / RFU, TFCP2 / Fold change vs veh, TFCP2 / RFU, GMCL1 /// GMCL1P1 / Fold change vs veh, GMCL1 /// GMCL1P1 / RFU, AEBP2 / Fold change vs veh, AEBP2 / RFU, SNHG1 /// SNORD22 /// SNORD25 /// SNORD26 /// SNORD27 /// SNORD28 /// SNORD29 /// SNORD31 / Fold change vs veh, SNHG1 /// SNORD22 /// SNORD25 /// SNORD26 /// SNORD27 /// SNORD28 /// SNORD29 /// SNORD31 / Fold change (Aza/veh), C12orf56 (ProbeSet 11735607_a_at) / Fold change (ACY-1035/veh), C12orf56 (ProbeSet 11735607_a_at) / Fold change (Aza/veh), FGFR1OP (ProbeSet 11751329_s_at) / Fold change (ACY-1035/veh), FGFR1OP (ProbeSet 11751329_s_at) / Fold change (Aza/veh), VPS36 (ProbeSet 11739960_a_at) / Fold change (ACY-1035/veh), VPS36 (ProbeSet 11739960_a_at) / RFU SYPL1 (11715823_x_at) / Fold change /veh SYPL1 (11715823_x_at) / RFU IGFBP7 (11715501_s_at) / Fold change /veh IGFBP7 (11715501_s_at) / RFU REEP3 (11722064_at) / Fold change /veh REEP3 (11722064_at) / RFU IGLL1 (11728026_x_at) / Fold change /veh IGLL1 (11728026_x_at): dose or concentration left out as unconfirmed
Conditions: ProbeSet 11715478_a_at; LIST B

## Nc1ccc(-c2cccs2)cc1NC(=O)c1ccc2c(c1)cc(C1CC1)n2CCN1CCOCC1 [ACY-1035]
  RFU, TFRC: 135.12 RFU
